From ChEMBL document CHEMBL6078653, “In Vitro Biological Target Screening and Colloidal Aggregation of Minor Cannabinoids” (J Nat Prod, 2024)

Legend:
[1] = target: Sodium-dependent noradrenaline transporter (Homo sapiens, UniProt P23975); assay: Displacement of [125]RTI-55 from human recombinant NET receptor expressed in MDCK cells incubated for 3 hrs by radioligand binding assay; format: toxicity, cell-based
Homo sapiens [2] = species: Homo sapiens; assay: Inhibition of human MDH at 100 to 200 uM incubated for 5 mins in presence of NADH by absorbance based analysis relative to control; settings: dose 100-200 µM
Histamine H1 receptor = Histamine H1 receptor (Homo sapiens, UniProt P35367); assay: Displacement of [3H]-Pyrilamine from human recombinant H1 receptor expressed in CHO-K1 cells incubated for 3 hrs by radioligand binding assay; format: toxicity, cell-based
Sequence of Histamine H1 receptor (P35367 whole entry): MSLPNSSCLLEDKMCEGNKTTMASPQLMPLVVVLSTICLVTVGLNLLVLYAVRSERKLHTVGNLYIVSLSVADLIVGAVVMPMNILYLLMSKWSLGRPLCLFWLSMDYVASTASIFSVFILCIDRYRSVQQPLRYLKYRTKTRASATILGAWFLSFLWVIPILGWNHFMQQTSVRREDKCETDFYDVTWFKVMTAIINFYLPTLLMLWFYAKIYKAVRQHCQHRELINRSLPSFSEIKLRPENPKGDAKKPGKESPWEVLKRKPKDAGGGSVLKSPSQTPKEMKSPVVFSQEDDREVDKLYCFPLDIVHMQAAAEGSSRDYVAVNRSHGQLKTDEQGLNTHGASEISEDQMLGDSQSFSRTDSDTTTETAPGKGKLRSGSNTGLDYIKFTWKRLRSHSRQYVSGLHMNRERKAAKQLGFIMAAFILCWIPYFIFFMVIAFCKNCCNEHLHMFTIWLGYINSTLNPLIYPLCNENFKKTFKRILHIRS

[3] = Aggregation property of compound in DMEM assessed as critical aggregation concentration by DLS assay; format: physicochemical
Mu-type opioid receptor = Mu-type opioid receptor (Homo sapiens, UniProt P35372); assay: Displacement of [3H]-Diprenorphine from human recombinant MOP receptor expressed in CHO-K1 cells incubated for 60 mins by radioligand binding assay; format: toxicity, cell-based
Sequence of Mu-type opioid receptor (P35372 whole entry): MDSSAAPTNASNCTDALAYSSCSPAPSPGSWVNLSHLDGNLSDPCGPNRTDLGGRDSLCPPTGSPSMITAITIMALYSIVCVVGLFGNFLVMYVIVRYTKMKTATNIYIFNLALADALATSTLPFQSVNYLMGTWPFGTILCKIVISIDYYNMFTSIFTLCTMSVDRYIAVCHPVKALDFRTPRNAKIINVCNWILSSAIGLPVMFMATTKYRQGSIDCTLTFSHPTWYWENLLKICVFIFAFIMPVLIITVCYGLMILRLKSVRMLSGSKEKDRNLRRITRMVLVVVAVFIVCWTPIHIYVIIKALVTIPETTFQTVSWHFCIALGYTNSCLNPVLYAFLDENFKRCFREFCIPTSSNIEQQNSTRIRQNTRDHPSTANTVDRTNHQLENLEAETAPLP

[4] = Inhibition of human MDH incubated for 5 mins in presence of NADH by absorbance based analysis
Homo sapiens [5] = species: Homo sapiens; assay: Inhibition of human MDH at 100 to 200 uM incubated for 5 mins in presence of NADH and triton X-100 by absorbance based analysis relative to control; settings: dose 100-200 µM
[6] = Aggregation property of compound in PB buffer at pH 7 assessed as critical aggregation concentration by DLS assay; format: physicochemical
[7] = target: Sodium-dependent serotonin transporter (Homo sapiens, UniProt P31645); assay: Displacement of [3H]-Paroxetine from human […] cells incubated for 60 mins by radioligand binding assay; format: toxicity, cell-based
Sequence of Sodium-dependent serotonin transporter (P31645 whole entry): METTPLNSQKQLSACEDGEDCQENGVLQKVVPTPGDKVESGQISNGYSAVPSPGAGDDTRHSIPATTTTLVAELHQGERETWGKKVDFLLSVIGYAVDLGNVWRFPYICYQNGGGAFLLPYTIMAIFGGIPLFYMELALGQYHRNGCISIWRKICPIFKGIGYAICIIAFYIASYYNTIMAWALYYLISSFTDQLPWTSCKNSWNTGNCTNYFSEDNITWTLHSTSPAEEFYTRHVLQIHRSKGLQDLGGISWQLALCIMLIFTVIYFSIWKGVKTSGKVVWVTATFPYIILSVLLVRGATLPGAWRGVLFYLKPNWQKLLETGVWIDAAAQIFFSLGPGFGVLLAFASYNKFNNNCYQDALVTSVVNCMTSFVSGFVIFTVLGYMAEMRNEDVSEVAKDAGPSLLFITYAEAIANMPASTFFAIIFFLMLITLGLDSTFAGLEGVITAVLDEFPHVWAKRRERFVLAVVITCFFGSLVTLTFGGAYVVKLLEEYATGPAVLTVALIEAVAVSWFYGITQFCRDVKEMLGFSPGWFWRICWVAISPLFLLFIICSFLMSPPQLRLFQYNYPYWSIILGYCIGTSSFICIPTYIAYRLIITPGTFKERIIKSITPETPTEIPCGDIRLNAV

[8] = Aggregation property of compound in Tris HCL buffer at pH 7.4 assessed as critical aggregation concentration by DLS assay; format: physicochemical
[9] = Aggregation property of compound in PBS buffer at pH 7.4 assessed as critical aggregation concentration by DLS assay; format: physicochemical
[10] = target: Sodium-dependent dopamine transporter (Homo sapiens, UniProt Q01959); assay: Displacement of [125]RTI-55 from human recombinant DAT receptor expressed in CHO-S cells incubated for 3 hrs by radioligand binding assay; format: cell-based
Sequence of Sodium-dependent dopamine transporter (Q01959 whole entry): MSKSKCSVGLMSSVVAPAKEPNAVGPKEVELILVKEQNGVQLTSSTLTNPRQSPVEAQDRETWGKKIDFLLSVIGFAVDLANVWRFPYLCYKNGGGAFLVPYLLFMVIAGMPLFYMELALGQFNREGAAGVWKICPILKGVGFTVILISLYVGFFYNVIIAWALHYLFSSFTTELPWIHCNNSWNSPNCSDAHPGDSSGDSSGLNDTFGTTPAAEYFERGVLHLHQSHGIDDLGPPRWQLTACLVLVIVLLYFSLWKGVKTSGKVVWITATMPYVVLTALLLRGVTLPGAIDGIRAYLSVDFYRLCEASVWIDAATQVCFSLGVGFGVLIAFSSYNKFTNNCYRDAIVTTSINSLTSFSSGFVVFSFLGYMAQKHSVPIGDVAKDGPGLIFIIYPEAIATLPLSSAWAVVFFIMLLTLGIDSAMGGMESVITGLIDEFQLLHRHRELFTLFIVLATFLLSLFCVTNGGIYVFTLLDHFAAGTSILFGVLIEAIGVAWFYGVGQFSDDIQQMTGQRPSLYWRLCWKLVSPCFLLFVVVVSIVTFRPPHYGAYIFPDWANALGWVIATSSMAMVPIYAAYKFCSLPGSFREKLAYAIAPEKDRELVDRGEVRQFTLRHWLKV

[11] = target: Voltage-gated inwardly rectifying potassium channel KCNH2 (Homo sapiens, UniProt Q12809); assay: Displacement of [3H]-Dofetilide from recombinant hERG expressed in HEK293 cells incubated for 60 mins by radioligand binding assay; format: toxicity, cell-based
Sequence of Voltage-gated inwardly rectifying potassium channel KCNH2 (Q12809 whole entry): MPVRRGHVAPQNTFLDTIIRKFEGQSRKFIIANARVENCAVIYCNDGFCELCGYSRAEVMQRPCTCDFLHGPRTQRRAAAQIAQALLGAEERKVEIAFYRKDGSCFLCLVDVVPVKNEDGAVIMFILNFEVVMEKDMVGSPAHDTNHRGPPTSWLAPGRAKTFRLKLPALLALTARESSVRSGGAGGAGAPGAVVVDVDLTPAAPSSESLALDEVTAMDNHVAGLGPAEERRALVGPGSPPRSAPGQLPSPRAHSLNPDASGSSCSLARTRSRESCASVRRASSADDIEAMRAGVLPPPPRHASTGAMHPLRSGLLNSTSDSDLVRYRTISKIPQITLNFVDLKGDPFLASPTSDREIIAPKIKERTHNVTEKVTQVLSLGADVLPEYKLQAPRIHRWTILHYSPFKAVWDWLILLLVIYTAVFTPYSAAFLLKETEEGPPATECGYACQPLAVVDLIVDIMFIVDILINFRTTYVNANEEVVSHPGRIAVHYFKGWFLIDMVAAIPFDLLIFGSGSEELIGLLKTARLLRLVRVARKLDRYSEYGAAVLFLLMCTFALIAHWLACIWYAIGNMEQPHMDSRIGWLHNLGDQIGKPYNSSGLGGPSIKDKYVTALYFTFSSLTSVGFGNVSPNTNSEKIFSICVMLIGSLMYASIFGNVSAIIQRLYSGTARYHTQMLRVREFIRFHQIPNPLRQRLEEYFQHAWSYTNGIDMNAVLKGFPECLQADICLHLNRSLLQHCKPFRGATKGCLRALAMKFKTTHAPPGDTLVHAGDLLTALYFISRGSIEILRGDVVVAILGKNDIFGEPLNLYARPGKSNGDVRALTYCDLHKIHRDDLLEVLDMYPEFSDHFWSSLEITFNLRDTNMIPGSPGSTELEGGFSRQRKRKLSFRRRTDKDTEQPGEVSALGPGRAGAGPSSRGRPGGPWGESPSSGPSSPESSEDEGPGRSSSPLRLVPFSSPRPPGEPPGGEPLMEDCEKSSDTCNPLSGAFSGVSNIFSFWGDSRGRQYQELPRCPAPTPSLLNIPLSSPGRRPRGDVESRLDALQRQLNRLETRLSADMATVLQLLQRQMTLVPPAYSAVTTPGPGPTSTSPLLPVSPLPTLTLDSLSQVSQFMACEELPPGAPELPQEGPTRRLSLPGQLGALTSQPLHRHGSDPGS

[12] = target: 5-hydroxytryptamine receptor 2A (Homo sapiens, UniProt P28223); assay: Displacement of [3H]ketanserin from human recombinant 5-HT2A receptor expressed in CHO-K1 cells incubated for 60 mins by radioligand binding assay; format: toxicity, cell-based
Sequence of 5-hydroxytryptamine receptor 2A (P28223 whole entry): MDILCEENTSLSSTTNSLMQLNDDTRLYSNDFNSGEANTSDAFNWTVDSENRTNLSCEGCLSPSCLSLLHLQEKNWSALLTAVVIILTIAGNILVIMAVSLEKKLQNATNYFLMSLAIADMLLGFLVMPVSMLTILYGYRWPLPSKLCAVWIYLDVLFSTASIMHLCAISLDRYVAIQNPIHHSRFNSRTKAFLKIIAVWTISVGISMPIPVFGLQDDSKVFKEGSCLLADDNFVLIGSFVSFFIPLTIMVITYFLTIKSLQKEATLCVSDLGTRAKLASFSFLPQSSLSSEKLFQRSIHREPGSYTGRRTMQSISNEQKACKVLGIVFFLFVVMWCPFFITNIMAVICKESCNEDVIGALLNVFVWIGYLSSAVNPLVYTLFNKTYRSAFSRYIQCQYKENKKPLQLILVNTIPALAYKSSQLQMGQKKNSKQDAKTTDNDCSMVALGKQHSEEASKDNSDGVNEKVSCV

Sequence of Sodium-dependent noradrenaline transporter (P23975 whole entry): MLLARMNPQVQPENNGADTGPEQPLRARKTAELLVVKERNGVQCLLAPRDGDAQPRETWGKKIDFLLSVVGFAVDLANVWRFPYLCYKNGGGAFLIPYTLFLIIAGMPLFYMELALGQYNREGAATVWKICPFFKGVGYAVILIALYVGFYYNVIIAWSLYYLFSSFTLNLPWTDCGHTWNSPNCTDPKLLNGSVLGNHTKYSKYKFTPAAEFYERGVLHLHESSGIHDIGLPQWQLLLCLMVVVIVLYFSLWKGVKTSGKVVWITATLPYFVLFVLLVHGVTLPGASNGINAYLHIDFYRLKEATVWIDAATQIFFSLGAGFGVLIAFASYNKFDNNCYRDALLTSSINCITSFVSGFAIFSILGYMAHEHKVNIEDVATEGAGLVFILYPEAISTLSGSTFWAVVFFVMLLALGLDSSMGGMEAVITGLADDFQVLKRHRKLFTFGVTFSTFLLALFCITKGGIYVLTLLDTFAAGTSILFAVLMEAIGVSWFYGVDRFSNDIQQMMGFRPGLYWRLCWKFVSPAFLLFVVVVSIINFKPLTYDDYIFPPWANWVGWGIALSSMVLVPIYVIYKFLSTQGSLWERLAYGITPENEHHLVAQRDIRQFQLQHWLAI

Work on `CCCCCc1cc2c(c(O)c1C(=O)O)C=CC(C)(CCC=C(C)C)O2` (stereo unspecified) yielded an IC50 [1] of 3.22 µM, an inhibition (Homo sapiens [2]) of 100% and an IC50 (Histamine H1 receptor) of 5.7 µM. For the same compound, the CAC [3] was 100 µM, the IC50 (Mu-type opioid receptor) was 10.8 µM and the IC50 [4] was 30.2 µM. It also gave an inhibition (Homo sapiens [5]) of 100% and a CAC [6] of 100 µM.
Work on `CCCCCc1cc(O)c2c(c1)OC(C)(CCC=C(C)C)C=C2` (stereo unspecified) [CANNABICHROMENE] yielded an IC50 [1] of 1.95 µM, an IC50 [7] of 6.26 µM and a CAC [8] of 0.8 µM. The inhibition (Homo sapiens [2]) was 100%, the CAC [9] was 0.2 µM and the CAC [3] was 1.6 µM. It also gave an IC50 [10] of 0.74 µM, an IC50 [4] of 1 µM and an inhibition (Homo sapiens [5]) of 100%. The CAC [6] was 5.6 µM.
`C=C(C)[C@@H]1CCC(C)=C[C@H]1c1c(O)cc(CCCCC)c(C(=O)O)c1O` [CANNABIDIOLIC ACID] gave an inhibition (Homo sapiens [2]) of 100%, an IC50 [4] of 46.8 µM and an inhibition (Homo sapiens [5]) of 100%. For the same compound, the CAC [6] was 60.3 µM.
With `C=C(C)[C@@H]1CCC(C)=C[C@H]1c1c(O)cc(CCC)cc1O` [CANNABIDIVARIN] the IC50 [1] was 2.66 µM, the CAC [8] was 100 µM and the inhibition (Homo sapiens [2]) was 100%. It also gave a CAC [9] of 31.6 µM, a CAC [3] of 100 µM and an IC50 [10] of 3 µM. It also gave an IC50 (Mu-type opioid receptor) of 6.42 µM, an IC50 [4] of 11 µM and an inhibition (Homo sapiens [5]) of 100%. It also gave a CAC [6] of 31.6 µM.
In the case of `CCCCCc1cc(O)c(C/C=C(\C)CCC=C(C)C)c(O)c1C(=O)O` [CANNABIGEROLIC ACID], the inhibition (Homo sapiens [2]) is reported as 100%, the IC50 [10] is reported as 3.88 µM and the IC50 [4] is reported as 28.8 µM. The inhibition (Homo sapiens [5]) was 100% and the CAC [6] was 12 µM.
For `CCCCCc1cc(O)c(C/C=C(\C)CCC=C(C)C)c(O)c1` [CANNABIGEROL], the IC50 [1] was 2.45 µM, the IC50 [7] was 1.66 µM and the CAC [8] was 20.3 µM. For the same compound, the inhibition (Homo sapiens [2]) was 100%, the CAC [9] was 100 µM and the IC50 [11] was 3.06 µM. The CAC [3] was 16.7 µM, the IC50 [10] was 0.95 µM and the IC50 (Mu-type opioid receptor) was 1.38 µM. For the same compound, the IC50 [4] was 8.8 µM, the inhibition (Homo sapiens [5]) was 100% and the CAC [6] was 20.9 µM. It also gave an IC50 [12] of 1.88 µM.
Compound `CCCCCc1cc(O)c2c(c1)OC(C)(C)c1ccc(C)cc1-2` [CANNABINOL] has an IC50 [1] of 1.15 µM, an IC50 [7] of 3.35 µM and a CAC [8] of 10.4 µM. For the same compound, the inhibition (Homo sapiens [2]) was 100%, the CAC [9] was 23.1 µM and the CAC [3] was 4.8 µM. It also gave an IC50 (Mu-type opioid receptor) of 3.21 µM, an IC50 [4] of 3.2 µM and an inhibition (Homo sapiens [5]) of 100%. The CAC [6] was 12.9 µM and the IC50 [12] was 4.89 µM.
